In PubChem BioAssay (NCI):
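Dose response: 5 concentrations. Exposure: 48 h. Format: 96-well plates. Endpoint: linear interpolation; highest concentration if not reached. GI50 marks 50% less growth. TGI marks complete inhibition of growth.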

Experiments:
Test in all cases: DTP human tumour cell line panel, 48 h
CCRF-CEM leukemia = tested on: CCRF-CEM leukemia
HOP-92 NSCLC = tested on: HOP-92 NSCLC
MALME-3M melanoma = tested on: MALME-3M melanoma
MCF7 breast = tested on: MCF7 breast
NCI-H460 lung = tested on: NCI-H460 lung
NCI-H522 lung = tested on: NCI-H522 lung
OVCAR-4 ovarian = tested on: OVCAR-4 ovarian
RXF 393 renal = tested on: RXF 393 renal
SK-MEL-2 melanoma = tested on: SK-MEL-2 melanoma
SK-MEL-5 melanoma = tested on: SK-MEL-5 melanoma

| SMILES | TGI (CCRF-CEM leukemia) [µM] | TGI (HOP-92 NSCLC) [µM] | TGI (MALME-3M melanoma) [µM] | TGI (MCF7 breast) [µM] | TGI (NCI-H460 lung) [µM] | TGI (NCI-H522 lung) [µM] | TGI (OVCAR-4 ovarian) [µM] | TGI (RXF 393 renal) [µM] | TGI (SK-MEL-2 melanoma) [µM] | TGI (SK-MEL-5 melanoma) [µM] | GI50 (CCRF-CEM leukemia) [µM] | GI50 (HOP-92 NSCLC) [µM] | GI50 (MALME-3M melanoma) [µM] | GI50 (MCF7 breast) [µM] | GI50 (NCI-H460 lung) [µM] | GI50 (NCI-H522 lung) [µM] | GI50 (OVCAR-4 ovarian) [µM] | GI50 (RXF 393 renal) [µM] | GI50 (SK-MEL-2 melanoma) [µM] | GI50 (SK-MEL-5 melanoma) [µM] |
| --- | --- | --- | --- | --- | --- | --- | --- | --- | --- | --- | --- | --- | --- | --- | --- | --- | --- | --- | --- | --- |
| CCC(=O)OCOc1ccc(/C=C2\CCC(CN(C)C)C2=O)cc1 (stereo unspecified) | > 23.1 | 29.5 | 10.6 | 10.1 | 32.7 | 4.41 | 15.3 | 9.55 | 27.9 | 26.6 |  |  |  |  |  |  |  |  |  |  |
| Cc1cc(OCc2ccc(C(F)(F)F)cc2)c2c(c1)C(=O)C=C(NCCN1CCCC1)C2=O | 7.12 | 7.38 | 3.95 | 3.56 | 3.43 | 6.05 | 15.5 | 2.94 | 4.08 | 2.88 | 2.48 | 1.96 | 2.09 | 1.67 | 1.84 | 2.66 | 4.01 | 1.37 | 1.99 | 1.53 |
| O=C1C=CC2C3C(=O)N(c4ccccc4)C(=O)C3C1N2Cc1ccccc1 (stereo unspecified) | 4.12 | 9.75 | 9.43 | 11.5 | 9.01 | 7.64 | 17.7 | 6.53 | 9.29 | 6.88 | 0.942 | 3.66 | 4.62 | 3.19 | 3.49 | 2.68 | 5.54 | 2.42 | 4.37 | 3.57 |
| Oc1c(C(c2ccc(F)cc2)N2CCCCC2)ccc2cncnc12 (stereo unspecified) | > 100 | 2.96 | 47.9 | > 39.4 | 14.1 | 10.2 | > 100 | 12.2 | 5.86 | 3.63 | 0.477 | 0.313 | 1.17 | 0.344 | 0.351 | 0.353 | 1.77 | 0.416 | 0.527 | 0.529 |
| COC(=O)C1=C(C)NC(=S)NC1c1ccc(N(CCCl)CCCl)cc1Cl (stereo unspecified) | > 32.7 | > 100 | 41.7 | 66.1 | > 100 | 81.9 | > 84.1 | > 81.2 | > 85.9 | 20.1 |  |  |  |  |  |  |  |  |  |  |
| Cc1ccc2ccccc2c1CSc1nc(N)nc2c1ncn2CC(C)C | > 95.5 | > 100 | > 62.2 | > 63.9 | > 96.2 | 96.9 | > 100 | > 90.7 | > 73.9 | 20.3 |  |  |  |  |  |  |  |  |  |  |
| CCOP(=O)(OCC)/C(=C/n1c(=S)[nH]c2ccccc21)C(=O)OC | > 100 | > 100 | > 100 | > 100 | > 31.6 | > 100 | > 100 | > 100 | > 100 | > 100 |  | > 100 |  |  |  |  |  |  |  |  |
| CCCCCCCCN(CCCCCCCC)CC(O)c1cc(-c2ccccc2)nc2ccc(OC)cc12 (stereo unspecified) | > 100 | > 100 | > 100 | > 100 | > 100 | > 100 | > 100 | > 100 | > 100 | > 100 | 26.1 | 57.5 | > 100 | 38.9 | > 100 | 53.4 | 51 | 43.7 | 50.3 | 34.4 |
| CC(NNC(=S)N1CCN(c2ccccn2)CC1)c1nccc2ccccc12 (stereo unspecified) | 1.02 | 7.79 | 15.5 | 14.3 | 11.3 | 14 | 19.2 | 8.53 | 18.3 | 12.3 |  |  |  |  |  |  |  |  |  |  |
| COC(=O)Nc1nc2ccc(C(=O)c3cccc(I)c3)cc2[nH]1 | 5.26 | 11.7 | 24.1 | 15.9 | 4.33 | 9.59 | 15.3 | 1.05 | > 72.3 | 2.31 | 0.0402 | 0.0985 | 0.274 | 0.0369 | 0.0407 | 0.0778 | 0.818 | 0.0494 | 1.26 | 0.068 |
| COc1ccc(C(=O)/C=C/c2ccc(OCc3cccc(C(F)(F)F)c3)c(OC)c2)cc1OC | > 1000 | > 1000 | > 1000 | > 1000 | > 1000 | > 1000 | > 1000 | 562 | > 1000 | 301 | 38.8 | 142 | 271 | 27.4 | 51.7 | 39.2 | 51.7 | 68.3 | 187 | 38.4 |
| O=C1/C=C/[C@@H](O)[C@@H]2C[C@@H](O)C[C@H]2/C=C/CCC[C@H](CCO)O1 | > 100 | 0.93 | 0.529 | 0.558 | > 100 | 0.604 | > 100 | 0.117 | 0.734 | 0.0423 | 0.362 | 0.233 | 0.0951 | 0.188 | 0.382 | 0.211 | 0.132 | 0.0272 | 0.244 | 0.0201 |
| CCOC(=O)N1CCC(N=C2CSc3nnc(-c4cc(C(F)(F)F)cc(C(F)(F)F)c4)n3N2)CC1 | 5.28 | 5 | 3.31 | 4.98 | 4.1 | 4.61 | 5.49 | 3.08 | 3.6 | 3 | 2.01 | 1.97 | 1.68 | 2.05 | 2.11 | 2.27 | 1.86 | 1.57 | 2 | 1.61 |
| Nc1ccc(C#Cc2ccccc2C#CCCCCO)cc1 | 28.1 | 32.1 | 43.9 | 52.2 | 45.4 | 29.5 | 32.6 | 20.5 | 37.1 | 38.6 | 13.2 | 15.5 | 24.8 | 23.5 | 21.8 | 15.7 | 16.7 | 4.69 | 18.8 | 19.8 |
